Starred links: 1 amine or outer side, 2 acyl side, 3 side chain; linkers in the order of their positions; H or OH if unused. Positions of bridges follow the written chain, without caps; N, C: chain ends. Non-standard residues stand in square brackets, D forms with d. Residues, ends and D or L forms follow the SMILES beside them. Groups on a side chain read outwards from the residue. *: point of attachment. X3 = NC(=O)[C@H](CCCCN*)NC(=O)CC[C@H](NC(=O)CC[C@H](NC(=O)CCCCCCCCCCCCCCC(=O)O)C(=O)O)C(=O)O; X10 = NC(=O)[C@H](CCCCN*)NC(=O)CC[C@H](NC(=O)CC[C@H](NC(=O)CCCc1ccc(I)cc1)C(=O)O)C(=O)O; Trp(1-CH2CO) = O=C([C@H](Cc1cn(CC(=O)[*:3])c2ccccc12)N[*:1])[*:2]; Trp(5-OH) = N[C@@H](Cc1c[nH]c2ccc(O)cc12)C(=O)O; Phe(4-COOH) = N[C@@H](Cc1ccc(C(=O)O)cc1)C(=O)O; Piperazinyl(4-CH2COOH) = O=C(O)CN1CCN(*)CC1; X7 = O=C(O)CN1CCC(N[*:1])(C(=O)[*:2])CC1; C16 diacid = O=C(O)CCCCCCCCCCCCCCC(=O)*; γGlu = O=C(O)[C@H](CCC(=O)[*:2])N[*:1]; NMeK = CN[C@@H](CCCCN)C(=O)O; Aib = CC(C)(N)C(=O)O; CO = O=C([*:1])[*:2]

Consider eleven compounds from patent US12415834B2, “GhR-binding peptide and composition comprising same” (priority 2021, dated 2025).

The target in the experiment is T1, Recombinant human GhR-Fc protein (Homo sapiens, UniProt P10912).
T1 construct: purchased R&D Systems
The experiment can be described thus: SPR binding assay (Biacore T200, single-cycle kinetics) of peptides against immobilized human GhR-Fc. The settings on record: SPR, hGhR; Table 1 bicyclic peptides; KD calculated from ka and kd; read-out: KD. Here is the method: SPR assay was performed using Biacore T200 (cytiva: Former GE Healthcare). After the equilibration of Series S Sensor Chip CM5 (produced by cytiva: Former GE Healthcare) with Running Buffer (HBS-EP with 1% (v/v) DMSO), an EDC/NHS mixture was injected at a flow rate of 10 μL/min for 7 minutes to thereby activate the functional groups on sensor chip. Recombinant human GhR-Fc protein (R&D Systems) in 10 mM Acetate (pH 4.0) was injected immobilized to at a flow rate of 5 μL/min. It took 7 minutes to immobilize the GhR on the substrate surfaces of the sensor chip. Then Ethanolamine was injected at a flow rate of 10 μL/min for 7 minutes. 1M Ethanolamine (aq.) was injected at a flow rate of 10 μL/min for 420 seconds for capping.
Using these Peptide Samples, kinetics of peptides against human GhR-Fc protein were measured. The method adopted for sample measurement was a single-cycle kinetics method. The analysis was conducted using the evaluation software provided with Biacore T200. A DMSO correction curve obtained by solvent correction measurements was applied for the analysis. Kinetics fitting was done on the difference data obtained by subtracting the baseline data from sample measurement data. KD values were calculated based on the association rate constant (ka) and dissociation rate constant (kd). […]

T1 sequence (P10912 with tags, fused parts or gaps limits assumed): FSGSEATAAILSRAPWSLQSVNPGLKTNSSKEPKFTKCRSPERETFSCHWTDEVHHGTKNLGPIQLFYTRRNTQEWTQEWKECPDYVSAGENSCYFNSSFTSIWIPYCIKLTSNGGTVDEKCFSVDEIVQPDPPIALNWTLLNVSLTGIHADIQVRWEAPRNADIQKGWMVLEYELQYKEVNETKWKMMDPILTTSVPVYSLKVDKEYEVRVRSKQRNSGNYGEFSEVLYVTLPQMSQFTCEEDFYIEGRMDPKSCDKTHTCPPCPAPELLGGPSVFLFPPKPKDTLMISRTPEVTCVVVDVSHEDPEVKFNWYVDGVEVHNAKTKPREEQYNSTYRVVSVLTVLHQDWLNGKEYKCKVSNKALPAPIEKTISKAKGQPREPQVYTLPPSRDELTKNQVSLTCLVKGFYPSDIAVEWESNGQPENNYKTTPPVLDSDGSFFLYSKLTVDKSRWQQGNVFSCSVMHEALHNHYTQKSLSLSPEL

A word on the Kd: it is the constant that tells how readily two partners part at equilibrium. As to `CC(C)[C@@H]1NC(=O)[C@H](C(C)C)NC(=O)[C@@H]2CCCCNC(=O)Cn3cc(c4ccccc43)C[C@H](NC(=O)[C@H](CC(N)=O)NC(=O)[C@H](CO)NC1=O)C(=O)N[C@@H](Cc1ccc(O)cc1)C(=O)N[C@@H](CCCCN)C(=O)N[C@@H](Cc1c[nH]c3ccc(O)cc13)C(=O)NC1(CCN(CC(=O)O)CC1)C(=O)N[C@@H](C(C)C)C(=O)N[C@H](C(=O)NCCCC[C@H](NC(=O)CC[C@H](NC(=O)CC[C@H](NC(=O)CCCCCCCCCCCCCCC(=O)O)C(=O)O)C(=O)O)C(N)=O)CSCC(=O)N[C@@H](Cc1ccc(C(=O)O)cc1)C(=O)N2C` [Compound 18] ({CH2CO}-[Phe(4-COOH)][NMeK]VVSN[Trp(1-CH2CO)]YK[Trp(5-OH)][X7]VC-X3; lactam 2-7; thioether N-13), the Kd is 2.4 nM.

Regarding `CC(C)[C@@H]1NC(=O)[C@H](C(C)C)NC(=O)[C@@H]2CCCCNC(=O)Cn3cc(c4ccccc43)C[C@H](NC(=O)[C@H](CC(N)=O)NC(=O)[C@H](CO)NC1=O)C(=O)N[C@@H](Cc1ccc(O)cc1)C(=O)N[C@@H](CCCCN)C(=O)N[C@@H](Cc1c[nH]c3ccc(O)cc13)C(=O)NC(C)(C)C(=O)N[C@@H](C(C)C)C(=O)N[C@H](C(=O)NCCCC[C@H](NC(=O)CC[C@H](NC(=O)CC[C@H](NC(=O)CCCCCCCCCCCCCCC(=O)O)C(=O)O)C(=O)O)C(N)=O)CSCC(=O)N[C@@H](Cc1ccc(C(=O)O)cc1)C(=O)N2C` [Compound 19] ({CH2CO}-[Phe(4-COOH)][NMeK]VVSN[Trp(1-CH2CO)]YK[Trp(5-OH)][Aib]VC-X3; lactam 2-7; thioether N-13), the Kd is 1.93 nM.

For `CC(C)[C@@H]1NC(=O)[C@H](C(C)C)NC(=O)[C@@H]2CCCCNC(=O)Cn3cc(c4ccccc43)C[C@H](NC(=O)[C@H](CC(N)=O)NC(=O)[C@H](CO)NC1=O)C(=O)N[C@@H](Cc1ccc(O)cc1)C(=O)N[C@@H](CCCCN)C(=O)N[C@@H](Cc1c[nH]c3ccc(O)cc13)C(=O)NC(C)(C)C(=O)N[C@@H](C(C)C)C(=O)N[C@H](C(=O)NCC(=O)N1CCC[C@H]1C(=O)N[C@H](CO)C(=O)N[C@H](CO)C(=O)N[C@H](CO)C(=O)N[C@@H](CCCCNC(=O)CC[C@H](NC(=O)CC[C@H](NC(=O)CCCCCCCCCCCCCCC(=O)O)C(=O)O)C(=O)O)C(N)=O)CSCC(=O)N[C@@H](Cc1ccc(C(=O)O)cc1)C(=O)N2C` [Compound 20] ({CH2CO}-[Phe(4-COOH)][NMeK]VVSN[Trp(1-CH2CO)]YK[Trp(5-OH)][Aib]VCGP[dS][dS][dS]K([γGlu-γGlu-C16 diacid])-NH2; lactam 2-7; thioether N-13), the Kd is 1.25 nM.

In the case of `CC(C)[C@@H]1NC(=O)[C@H](C(C)C)NC(=O)[C@@H]2CCCCNC(=O)Cn3cc(c4ccccc43)C[C@H](NC(=O)[C@H](CC(N)=O)NC(=O)[C@H](CO)NC1=O)C(=O)N[C@@H](Cc1ccc(O)cc1)C(=O)N[C@@H](CCCCN)C(=O)N[C@@H](Cc1c[nH]c3ccc(O)cc13)C(=O)NC(C)(C)C(=O)N[C@@H](C(C)C)C(=O)N[C@H](C(=O)NCCCC[C@H](NC(=O)CC[C@H](NC(=O)CC[C@H](NC(=O)CCCc1ccc(I)cc1)C(=O)O)C(=O)O)C(N)=O)CSCC(=O)N[C@@H](Cc1ccc(C(=O)O)cc1)C(=O)N2C` [Compound 21] ({CH2CO}-[Phe(4-COOH)][NMeK]VVSN[Trp(1-CH2CO)]YK[Trp(5-OH)][Aib]VC-X10; lactam 2-7; thioether N-13), the Kd was 1.07 nM.

On to `CC(C)[C@@H]1NC(=O)[C@H](C(C)C)NC(=O)[C@@H]2CCCCNC(=O)Cn3cc(c4ccccc43)C[C@H](NC(=O)[C@H](CC(N)=O)NC(=O)[C@H](CO)NC1=O)C(=O)N[C@@H](Cc1ccc(C(=O)O)cc1)C(=O)N[C@@H](CCCCN)C(=O)N[C@@H](Cc1c[nH]c3ccc(O)cc13)C(=O)NC1(CCN(CC(=O)O)CC1)C(=O)N[C@@H](C(C)C)C(=O)N[C@H](C(=O)NCCCC[C@H](NC(=O)CC[C@H](NC(=O)CC[C@H](NC(=O)CCCCCCCCCCCCCCC(=O)O)C(=O)O)C(=O)O)C(N)=O)CSCC(=O)N[C@@H](Cc1ccc(O)cc1)C(=O)N2C` [Compound 23] ({CH2CO}-Y[NMeK]VVSN[Trp(1-CH2CO)][Phe(4-COOH)]K[Trp(5-OH)][X7]VC-X3; lactam 2-7; thioether N-13), for which the dissociation constant Kd was 2.29 nM.

Turning to `CC(C)[C@@H]1NC(=O)[C@H](C(C)C)NC(=O)[C@@H]2CCCCNC(=O)Cn3cc(c4ccccc43)C[C@H](NC(=O)[C@H](CC(N)=O)NC(=O)[C@H](CO)NC1=O)C(=O)N[C@@H](Cc1ccc(C(=O)O)cc1)C(=O)N[C@@H](CCCCN)C(=O)N[C@@H](Cc1c[nH]c3ccc(O)cc13)C(=O)NC(C)(C)C(=O)N[C@@H](C(C)C)C(=O)N[C@H](C(=O)NCC(=O)N1CCC[C@H]1C(=O)N[C@H](CO)C(=O)N[C@H](CO)C(=O)N[C@H](CO)C(=O)N[C@@H](CCCCNC(=O)CC[C@H](NC(=O)CC[C@H](NC(=O)CCCCCCCCCCCCCCC(=O)O)C(=O)O)C(=O)O)C(N)=O)CSCC(=O)N[C@@H](Cc1ccc(O)cc1)C(=O)N2C` [Compound 25] ({CH2CO}-Y[NMeK]VVSN[Trp(1-CH2CO)][Phe(4-COOH)]K[Trp(5-OH)][Aib]VCGP[dS][dS][dS]K([γGlu-γGlu-C16 diacid])-NH2; lactam 2-7; thioether N-13), the Kd was 2.23 nM.

`CC(C)[C@@H]1NC(=O)[C@H](C(C)C)NC(=O)[C@@H]2CCCCNC(=O)Cn3cc(c4ccccc43)C[C@H](NC(=O)[C@H](CC(N)=O)NC(=O)[C@H](CO)NC1=O)C(=O)N[C@@H](Cc1ccc(C(=O)O)cc1)C(=O)N[C@@H](CCCCN)C(=O)N[C@@H](Cc1c[nH]c3ccc(O)cc13)C(=O)NC(C)(C)C(=O)N[C@@H](C(C)C)C(=O)N[C@H](C(=O)NCCCC[C@H](NC(=O)CC[C@H](NC(=O)CC[C@H](NC(=O)CCCc1ccc(I)cc1)C(=O)O)C(=O)O)C(N)=O)CSCC(=O)N[C@@H](Cc1ccc(O)cc1)C(=O)N2C` [Compound 26] ({CH2CO}-Y[NMeK]VVSN[Trp(1-CH2CO)][Phe(4-COOH)]K[Trp(5-OH)][Aib]VC-X10; lactam 2-7; thioether N-13): the Kd is 1.59 nM.

On to `CC(C)[C@@H]1NC(=O)[C@H](C(C)C)NC(=O)[C@@H]2CCCCNC(=O)Cn3cc(c4ccccc43)C[C@H](NC(=O)[C@H](CC(N)=O)NC(=O)[C@H](CO)NC1=O)C(=O)N[C@@H](Cc1ccc(O)cc1)C(=O)N[C@@H](CCCCNC(=O)N1CCN(CC(=O)O)CC1)C(=O)N[C@@H](Cc1c[nH]c3ccc(O)cc13)C(=O)NC(C)(C)C(=O)N[C@@H](C(C)C)C(=O)N[C@H](C(=O)NCCCC[C@H](NC(=O)CC[C@H](NC(=O)CC[C@H](NC(=O)CCCCCCCCCCCCCCC(=O)O)C(=O)O)C(=O)O)C(N)=O)CSCC(=O)N[C@@H](Cc1ccc(O)cc1)C(=O)N2C` [Compound 27] ({CH2CO}-Y[NMeK]VVSN[Trp(1-CH2CO)]YK([CO-Piperazinyl(4-CH2COOH)])[Trp(5-OH)][Aib]VC-X3; lactam 2-7; thioether N-13), for which the Kd was 1.79 nM.

As for `CC(C)[C@@H]1NC(=O)[C@H](C(C)C)NC(=O)[C@@H]2CCCCNC(=O)Cn3cc(c4ccccc43)C[C@H](NC(=O)[C@H](CC(N)=O)NC(=O)[C@H](CO)NC1=O)C(=O)N[C@@H](Cc1ccc(O)cc1)C(=O)N[C@@H](CCCCN)C(=O)N[C@@H](Cc1c[nH]c3ccc(O)cc13)C(=O)NC1(CCN(CC(=O)O)CC1)C(=O)N[C@@H](C(C)C)C(=O)N[C@H](C(=O)NCCCC[C@H](NC(=O)CC[C@H](NC(=O)CC[C@H](NC(=O)CCCCCCCCCCCCCCC(=O)O)C(=O)O)C(=O)O)C(N)=O)CSCC(=O)N[C@@H](Cc1ccc(O)cc1)C(=O)N2C` [Compound 29] ({CH2CO}-Y[NMeK]VVSN[Trp(1-CH2CO)]YK[Trp(5-OH)][X7]VC-X3; lactam 2-7; thioether N-13), the Kd is 1.57 nM.

As for `CC(C)[C@@H]1NC(=O)[C@H](C(C)C)NC(=O)[C@@H]2CCCCNC(=O)Cn3cc(c4ccccc43)C[C@H](NC(=O)[C@H](CC(N)=O)NC(=O)[C@H](CO)NC1=O)C(=O)N[C@@H](Cc1ccc(O)cc1)C(=O)N[C@@H](CCCCN)C(=O)N[C@@H](Cc1c[nH]c3ccc(O)cc13)C(=O)NC1(CCN(CC(=O)O)CC1)C(=O)N[C@@H](C(C)C)C(=O)N[C@H](C(=O)NCC(=O)N1CCC[C@H]1C(=O)N[C@H](CO)C(=O)N[C@H](CO)C(=O)N[C@H](CO)C(=O)N[C@@H](CCCCNC(=O)CC[C@H](NC(=O)CC[C@H](NC(=O)CCCCCCCCCCCCCCC(=O)O)C(=O)O)C(=O)O)C(N)=O)CSCC(=O)N[C@@H](Cc1ccc(O)cc1)C(=O)N2C` [Compound 30] ({CH2CO}-Y[NMeK]VVSN[Trp(1-CH2CO)]YK[Trp(5-OH)][X7]VCGP[dS][dS][dS]K([γGlu-γGlu-C16 diacid])-NH2; lactam 2-7; thioether N-13), the Kd is 2.26 nM.

For the compound `CC(C)[C@@H]1NC(=O)[C@H](C(C)C)NC(=O)[C@@H]2CCCCNC(=O)Cn3cc(c4ccccc43)C[C@H](NC(=O)[C@H](CC(N)=O)NC(=O)[C@H](CO)NC1=O)C(=O)N[C@@H](Cc1ccc(O)cc1)C(=O)N[C@@H](CCCCN)C(=O)N[C@@H](Cc1c[nH]c3ccc(O)cc13)C(=O)NC(C)(C)C(=O)N[C@@H](C(C)C)C(=O)N[C@H](C(=O)NCC(=O)N1CCC[C@H]1C(=O)N[C@H](CO)C(=O)N[C@H](CO)C(=O)N[C@H](CO)C(=O)N[C@@H](CCCCNC(=O)CC[C@H](NC(=O)CC[C@H](NC(=O)CCCCCCCCCCCCCCC(=O)O)C(=O)O)C(=O)O)C(N)=O)CSCC(=O)N[C@@H](Cc1ccc(O)cc1)C(=O)N2C` [Compound 31] ({CH2CO}-Y[NMeK]VVSN[Trp(1-CH2CO)]YK[Trp(5-OH)][Aib]VCGP[dS][dS][dS]K([γGlu-γGlu-C16 diacid])-NH2; lactam 2-7; thioether N-13), the Kd was 0.92 nM.
